Experiment [1] concerns the target T1, Calcitonin gene-related peptide type 1 receptor (Homo sapiens, UniProt O60894+Q16602). Briefly: biochemical. It is filed as cell-based, HEK293.
Description: Displacement of [125I]hCGRP from human CGRP receptor expressed in HEK293 cells coexpressing RAMP1
The target in experiment [2] is T1, Calcitonin gene-related peptide type 1 receptor. It is filed as functional, cell-based, HEK293.
The target is the same in experiment [3]. Briefly: Antagonistic activity at human CGRP receptor expressed in HEK293 cells coexpressing RAMP1 assessed as inhibition of CGRP-induced cAMP production. It is filed as functional, cell-based.

Structures are written as SMILES.

T1 sequence (Q16602 whole entry, one chain of several): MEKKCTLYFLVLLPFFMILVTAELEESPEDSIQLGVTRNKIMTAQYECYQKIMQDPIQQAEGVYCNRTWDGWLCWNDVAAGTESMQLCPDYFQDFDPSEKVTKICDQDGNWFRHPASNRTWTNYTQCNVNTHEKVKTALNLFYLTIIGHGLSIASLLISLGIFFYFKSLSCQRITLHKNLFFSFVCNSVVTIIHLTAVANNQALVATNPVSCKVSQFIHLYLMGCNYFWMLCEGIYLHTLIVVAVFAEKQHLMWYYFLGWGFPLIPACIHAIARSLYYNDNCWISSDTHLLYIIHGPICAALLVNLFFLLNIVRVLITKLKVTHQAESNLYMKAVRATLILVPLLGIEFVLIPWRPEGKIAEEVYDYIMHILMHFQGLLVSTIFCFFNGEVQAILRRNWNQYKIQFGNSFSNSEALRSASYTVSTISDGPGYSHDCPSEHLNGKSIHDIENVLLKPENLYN

Take `O=C(Cn1c(=O)n(-c2ccccn2)c2ccccc21)Nc1ccc2c(c1)C[C@@]1(C2)N=C(c2ccccc2)NC1=O`: the Ki in experiment [1] is 34 nM.

As to `O=C1CC2(Cc3ccc(NC(=O)Cn4c(=O)n(-c5ccccn5)c5ccccc54)cc3C2)C(=O)N1` (centres undefined), the Ki in experiment [1] worked out at 96 nM.

As to `O=C(Cn1c(=O)n(-c2ccccn2)c2ccccc21)Nc1ccc2c(c1)CC1(CCNC1=O)C2` (centres undefined), the Ki in experiment [1] was 270 nM.

Turning to `O=C(Cn1c(=O)n(-c2ccccn2)c2ccccc21)Nc1ccc2c(c1)CC1(C2)C(=O)Nc2ccccc21` (centres undefined), in experiment [1], the Ki was determined as 520 nM.

Consider `O=C(N[C@@H]1N=C(c2ccccc2)c2ccccc2N(CC(F)(F)F)C1=O)N1CCC(n2c(=O)[nH]c3ncccc32)CC1`, for which the IC50 in experiment [2] is 730 nM. In addition, the Ki in experiment [1] was determined as 22 nM.

On to `CN1C(=O)NC(=O)[C@]12Cc1ccc(NC(=O)Cn3c(=O)n(C4CCSCC4)c4ccccc43)cc1C2`, for which the IC50 is 220 nM in experiment [2] and 27 nM in experiment [3]. Moreover, in experiment [1], the Ki came out at 13 nM.

With `O=C(Cn1c(=O)n(-c2ccccn2)c2ccccc21)Nc1ccc2c(c1)CC1(C2)C(=O)Nc2ncccc21` (centres undefined), the Ki in experiment [1] stood at 3.7 nM.

For the molecule `O=C(CN1C(=O)C2(CCOCC2)c2ccccc21)Nc1ccc2c(c1)C[C@]1(C2)C(=O)Nc2ncccc21`, the figures for the IC50 in experiment [2] and in experiment [3] were 39 nM and 5.7 nM, respectively. For the same molecule, the inhibitory constant (Ki) in experiment [1] came out at 1.7 nM.

`O=C(Cn1c(=O)n(-c2ccccn2)c2ccccc21)Nc1ccc2c(c1)C[C@]1(C2)C(=O)Nc2ncccc21`: the results for the IC50 in experiment [2] and in experiment [3] were 420 nM and 8.6 nM, respectively. In experiment [1], the Ki was found to be 2.3 nM.

Turning to `CN1C(=O)NC(=O)[C@]12Cc1ccc(NC(=O)Cn3c(=O)n(C4CCOC4)c4ccccc43)cc1C2` (some centres undefined), in experiment [2], the IC50 was determined as 170 nM.

On to `O=C(Cn1c(=O)n(C2CCSCC2)c2ccccc21)Nc1ccc2c(c1)C[C@]1(C2)C(=O)Nc2ncccc21`, for which the IC50 in experiment [2] was 24 nM; in experiment [3], 2.5 nM. In addition, the Ki in experiment [1] amounted to 0.87 nM.

For the molecule `Cc1cc(C)c2c(c1)n(CC(=O)Nc1ccc3c(c1)C[C@]1(C3)C(=O)Nc3ncccc31)c(=O)n2CC(=O)N(C)C`, the IC50 in experiment [2] was found to be 4.1 nM; in experiment [3], 0.87 nM. For the same molecule, the Ki in experiment [1] was determined as 0.21 nM.

With `CN1C(=O)NC(=O)[C@]12Cc1ccc(NC(=O)CN3C(=O)C4(CCOCC4)c4ccccc43)cc1C2`, the IC50 in experiment [2] is 160 nM; in experiment [3], 57 nM. Also, in experiment [1], the Ki amounted to 35 nM.

Turning to `O=C(Cn1c(=O)n(-c2ccccn2)c2ccccc21)Nc1ccc2c(c1)C[C@@]1(C2)NC(=O)NC1=O`, the Ki in experiment [1] was 230 nM.

On to `O=C(Cn1c(=O)n(C2CCOC2)c2ccccc21)Nc1ccc2c(c1)C[C@]1(C2)C(=O)Nc2ncccc21` (some centres undefined), for which the IC50 in experiment [2] was 27 nM; in experiment [3] it was 5.2 nM. The Ki in experiment [1] is 1.2 nM.

For the molecule `O=C(Cn1c(=O)n(-c2ccccn2)c2ccccc21)Nc1ccc2c(c1)C[C@@]1(C2)N=C(c2cccnc2)NC1=O`, the Ki in experiment [1] came to 130 nM.

Turning to `O=C(Cn1c(=O)n(-c2ccccn2)c2ccccc21)Nc1ccc2c(c1)C[C@@]1(C2)N=C(C2CC2)NC1=O`, in experiment [1], the Ki is 2600 nM.

For `CN1C(=O)NC(=O)[C@]12Cc1ccc(NC(=O)Cn3c(=O)n(-c4ccncn4)c4ccccc43)cc1C2`, the IC50 came to 74 nM in experiment [2] and 10 nM in experiment [3]. Besides, the Ki in experiment [1] worked out at 16 nM.

Regarding `O=C(Cn1c(=O)n2c3c(cccc31)NC(=O)C2)Nc1ccc2c(c1)C[C@]1(C2)C(=O)Nc2ncccc21`, the IC50 in experiment [2] came to 0.62 nM; in experiment [3], 0.28 nM. For the same molecule, the inhibition constant (Ki) in experiment [1] was found to be 0.04 nM.

Consider `O=C(Cn1c(=O)n(-c2ccccn2)c2ccccc21)Nc1ccc2c(c1)CC1(CCCNC1=O)C2` (centres undefined), for which the Ki in experiment [1] was 2700 nM.

Turning to `O=C(Cn1c(=O)n(-c2ccncn2)c2ccccc21)Nc1ccc2c(c1)C[C@]1(C2)C(=O)Nc2ncccc21`, the IC50 is 35 nM in experiment [2] and 1.6 nM in experiment [3]. Besides, the Ki in experiment [1] stood at 0.61 nM.

Regarding `O=C1CN(C2CCN(C(=O)N[C@@H]3N=C(c4ccccc4)c4ccccc4N(CC(F)(F)F)C3=O)CC2)C(=O)N1`, the Ki in experiment [1] was found to be 520 nM.

Regarding `O=C(N[C@@H]1N=C(c2ccccc2)c2ccccc2N(CC(F)(F)F)C1=O)N1CCC(n2c(=O)[nH]c3ccccc32)CC1`, in experiment [1], the Ki came out at 2200 nM.

Values taken from ChEMBL document CHEMBL1139248 (Bioorg Med Chem Lett, 2009).
